According to EP0248858B1, “NOVEL PHOSPHO-COMPOUNDS AND M[…]” (Max-Planck-Gesellschaft zur Förderung der Wissenschaften …, priority 1985, dated 1987):

Test system: chemisch induzierten Mamma-Karzinomen
Test: chemically induced mammary carcinoma of the rat, oral administration as drinking solution
Type: in vivo
Details: Ratten; for Remission von chemisch induzierten Mamma-Karzinomen: oral (Trinklösung), Tagesdosen von 20, 40 und 60 mg/kg Körpergewicht; for Verträglichkeit compared with 1-Octadecyl-2-methyl-rac-glycero-3-phospho-cholin / Wirksamkeit compared with 1-Octadecyl-2-methyl-rac-glycero-3-phospho-cholin: oral, comparison with 1-Octadecyl-2-methyl-rac-glycero-3-phospho-cholin
From the text: Die erfindungsgemäßen Arzneimittel, welche als Wirkstoffe eine Verbindung der allgemeinen Formel I enthalten, besitzen eine ausgeprägte cytotoxische Wirksamkeit, die sowohl in vivo am chemisch induzierten Mamma-Karzinom der Ratte, als auch in vitro an Leukämiezellen in der Zellkultur nachgewiesen wurde. Darüberhinaus wurden in einer klinischen Pilotstudie bei Patientinnen mit Mamma-Karzinom Hautmetastasen zur vollständigen Abheilung bei topischer Anwendung gebracht.
Für die orale Verabreichung werden die Verbindungen der allgemeinen Formel I zweckmäßig in Form einer Trinklösung angewendet. Als Träger eignen sich beispielsweise Milch, Kakao, Fruchtsaft oder Trinkwasser. […] Bei dem für diese Versuche verwendeten Tumormodell handelt es sich um ein sogenanntes hartes Modell. Dies bedeutet, daß die an diesem Modell erstellten Befunde in den meisten Fällen auch auf die humane Situation übertragbar sind.

Row | Structure (SMILES) | Remission von chemisch induzierten Mamma-Karzinomen | Verträglichkeit compared with 1-Octadecyl-2-methyl-rac-glycero-3-phospho-cholin | Wirksamkeit compared with 1-Octadecyl-2-methyl-rac-glycero-3-phospho-cholin
1 | CCCCCCCC/C=C\CCCCCCCCOP(=O)([O-])OCC[N+](C)(C)C [Oleylphosphocholin] | vollständigen Remission | besser verträglich | besser wirksam
2 | CCCCCCCCCCCCCCCCOP(=O)([O-])OCC[N+](C)(C)C [Hexadecylphosphocholin] | vollständigen Remission | besser verträglich | besser wirksam
